Tested on: patients of the REDUCE-IT and earlier EPA placebo-controlled trials
Test: Example 3: adverse events by risk ratio, icosapent ethyl vs placebo (candidate categories; infectious disease terms of interest)
Conditions: for Risk Ratio (95% CI) / ARR / NNT / AR: Cough (AE table) / ARR: Cough (AE table) / NNT: Cough (AE table) / Risk Ratio (95% CI): Cough (AE table): R-I
[1] = Limb Fractures and Dislocations
[2] = NASH+Hepatic Steatosis for NFS >0.675
[3] = Psychosis: Psychotic disorder NEC
[4] = Squamous Cell Carcinoma of Head and Neck
[5] = Systemic Inflammatory Response Syndrome
[6] = first of three Cough lines of Table 46
[7] = second of three Cough lines of Table 46

## CC/C=C\C/C=C\C/C=C\C/C=C\C/C=C\CCCC(=O)OCC [icosapent ethyl, eicosapentaenoic acid ethyl ester]
Guttate psoriasis, case counts given
  Risk Ratio (95% CI): [1 drug vs 0 PBO]
Hepatitis C
  ARR: 0.0%
  NNT: −4089
Hepatitis C, case counts given
  Risk Ratio (95% CI): [1 drug vs 0 PBO]
IgA Nephropathy
  Risk Ratio (95% CI): [No cases in study]
Large intestine polyps
  ARR: −0.2%
  NNT: 511
  Risk Ratio (95% CI): 0.385 (0.137 to 1.078) 4
Leukaemia
  ARR: 0.0%
  NNT: −1.67e+07
  Risk Ratio (95% CI): 1.000 (0.063 to 15.986) −1
[1]
  ARR: −0.1%
  NNT: 1024
  Risk Ratio (95% CI): 0.883 (0.541 to 1.439) 1
Liver Cancer
  ARR: 0.0%
  NNT: −4088
  Risk Ratio (95% CI): 2.000 (0.181 to 22.053) −3
Lung Cancer
  ARR: −0.1%
  NNT: 1023
  Risk Ratio (95% CI): 0.637 (0.247 to 1.640) 2
Lupus
  ARR: −0.0%
  NNT: 4090
Lupus, case counts given
  Risk Ratio (95% CI): [0 drug vs 1 PBO]
Macular Degeneration
  ARR: 0.1%
  NNT: −1361
  Risk Ratio (95% CI): 1.188 (0.612 to 2.306) −1
Male Infertility
  Risk Ratio (95% CI): [No cases in study]
Migraine
  ARR: 0.2%
  NNT: −584
  Risk Ratio (95% CI): 2.751 (0.877 to 8.631) −4
Mucositis
  Risk Ratio (95% CI): [No cases in study]
Multiple Sclerosis
  ARR: −0.0%
  NNT: 4090
Multiple Sclerosis, case counts given
  Risk Ratio (95% CI): [0 drug vs 1 PBO]
Muscle spasms
  ARR: −1.1%
  NNT: 95
  Risk Ratio (95% CI): 0.579 (0.421 to 0.795) 3
NASH
  ARR: −0.1%
  NNT: 818
  Risk Ratio (95% CI): 0.167 (0.020 to 1.384) 5
NASH for b/l NFS >0.675
  ARR: −0.4%
  NNT: 273
  Risk Ratio (95% CI): 0.252 (0.028 to 2.251) 4
[2]
  ARR: −0.5%
  NNT: 209
  Risk Ratio (95% CI): 0.740 (0.342 to 1.601) 2
Nephrolithiasis
  ARR: 0.1%
  NNT: −1017
  Risk Ratio (95% CI): 1.050 (0.777 to 1.419) −1
Nephropathies
  ARR: −0.2%
  NNT: 455
  Risk Ratio (95% CI): 0.679 (0.380 to 1.213)2
Nephrotic Syndrome
  ARR: −0.0%
  NNT: 4090
Nephrotic Syndrome, case counts given
  Risk Ratio (95% CI): [0 drug vs 1 PBO]
PMS/Dysmenorrhea
  Risk Ratio (95% CI): [No cases in study]
PTSD
  ARR: −0.0%
  NNT: 4092
  Risk Ratio (95% CI): 0.667 (0.111 to 3.989) 2
Pancreatic Cancer
  ARR: 0.1%
  NNT: −1022
  Risk Ratio (95% CI): 5.001 (0.585 to 42.789) −5
Periodontitis
  ARR: 0.0%
  NNT: −2044
Polycystic Ovarian Syndrome
  Risk Ratio (95% CI): [No cases in study]
Psoriasis
  ARR: 0.3%
  NNT: −341
  Risk Ratio (95% CI): 1.750 (0.949 to 3.230) −3
Psoriatic Conditions
  ARR: 0.3%
  NNT: −292
  Risk Ratio (95% CI): 1.875 (1.024 to 3.435) −3
[3]
  ARR: −0.0%
  NNT: 4091
  Risk Ratio (95% CI): 0.500 (0.045 to 5.513) 3
Renal Transplant
  Risk Ratio (95% CI): [No cases in study]
Rheumatoid Arthritis
  ARR: −0.1%
  NNT: 1363
Rheumatoid Arthritis, case counts given
  Risk Ratio (95% CI): [0 drug vs 3 PBO]
Schizophrenia NEC
  ARR: −0.0%
  NNT: 4091
  Risk Ratio (95% CI): 0.500 (0.045 to 5.513) 3
Sepsis
  ARR: −0.1%
  NNT: 682
  Risk Ratio (95% CI): 0.807 (0.477 to 1.364) 1
Sickle Cell Disease
  Risk Ratio (95% CI): [No cases in study]
[4]
  ARR: −0.0%
  NNT: 4090
Squamous Cell Carcinoma of Head and Neck, case counts given
  Risk Ratio (95% CI): [0 drug vs 1 PBO]
[5]
  ARR: −0.1%
  NNT: 682
  Risk Ratio (95% CI): 0.143 (0.018 to 1.161) 5
Ulcerative Colitis
  ARR: −0.0%
  NNT: 4090
Ulcerative Colitis, case counts given
  Risk Ratio (95% CI): [0 drug vs 1 PBO]
Wheezing
  ARR: −0.3%
  NNT: 315
  Risk Ratio (95% CI): 0.639 (0.379 to 1.076) 2
[6]
  AR: Cough (AE table): 1,5%
  ARR: Cough (AE table): 0.9%
  NNT: Cough (AE table): −112
  Risk Ratio (95% CI): Cough (AE table): 1.928 (0.692 to 5.373) −3
[7]
  AR: Cough (AE table): 0.4%
  ARR: Cough (AE table): −0.2%
  NNT: Cough (AE table): 455
  Risk Ratio (95% CI): Cough (AE table): 0.526 (0.245 to 1.131) 3
Vs placebo, p value 0.06
  Severe SIRS: RR: approximately 0.17
Vs placebo, p-value 0.0338
  Systemic inflammatory response: risk ratio (RR): 0.143

— US20210308089A1, “METHODS OF TREATING AND/OR PREVENTING VIRAL INFECTIONS AND/OR DISEASES CAUSED BY VIRUSES IN A SUBJECT IN NEED THEREOF” (priority 2020, published 2021)
